From article PMC10938439, “C-3 Steroidal Hemiesters as Inhibitors of 17β-Hydroxysteroid Dehydrogenase Type 10” (ACS Omega, 2024)
pIC50: −log10 of the molar value. Values joined by “and” are separate entries in the source; they are usually repeats but may differ in a detail not shown here. Equal values may be shown once. “Also recorded” adds a separate entry of the source.

Experiments:
17β-HSD10 = target: T1, 17β-HSD10 (Homo sapiens, UniProt Q99714); assay: Inhibition of allopregnanolone to 5α-dihydroprogesterone transformation by recombinant 17β-HSD10; assay type: biochemical; details: 20 μM allopregnanolone as substrate; mean ± SEM (n = 4)
T1 construct: inferred from Ni-NTA purification with imidazole elution; made in house; host or cells: E. coli BL21 (DE3)
T1 sequence (Q99714 1-261): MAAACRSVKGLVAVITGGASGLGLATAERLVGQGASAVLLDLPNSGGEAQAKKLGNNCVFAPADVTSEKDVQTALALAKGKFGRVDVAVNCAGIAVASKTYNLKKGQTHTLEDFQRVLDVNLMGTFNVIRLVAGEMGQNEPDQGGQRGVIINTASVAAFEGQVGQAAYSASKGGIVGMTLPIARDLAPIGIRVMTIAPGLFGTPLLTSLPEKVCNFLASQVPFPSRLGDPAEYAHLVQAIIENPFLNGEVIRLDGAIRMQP
Description: Compound 23 (5 mM stock solution) was diluted with DMSO to the working concentrations. DMSO was used as vehicle control. The enzyme activity was determined as described in the previous section; the only difference was the replacement of 25 μM 17β-estradiol with 20 μM allopregnanolone as 17β-HSD10 substrate. For IC50 value determination, dose–response inhibition at 10 different concentrations of inhibitor (0.16–33.75 μM) was determined, and the data were analyzed by GraphPad Prism 8.4.3 (GraphPad Software Inc.). All measurements were performed in a tetraplicate.

HEK-293 cells [1] = assay: CellTiter-Glo luminescent cell viability assay; assay type: cell-based; details: HEK-293, 1, 10 and 20 μM
Description: (§1) Finally, because the strongest inhibitor identified in vitro compound 23 has a favorable permeability coefficient, its potency to inhibit 17β-HSD10 also at the cellular level was determined. First, it was necessary to exclude the possibility that higher concentrations of compound 23 could be unfavorable to cells. The effects of compound 23 on the cellular viability and cytotoxicity of this compound (1, 10, and 20 μM) were determined using CellTiter-Glo Viability Assay and CellTox Green Assay, respectively, on HEK-293 cell line.
(§2) HEK-293 cells in DMEM (Capricorn) were supplemented with fetal bovine serum (10%, Gibco), L-glutamine (2 mM, Lonza), and nonessential amino acid additives (Gibco). Cells were maintained at 37 °C under a humidified atmosphere of 5% CO2. Compound 23 was tested on the HEK-293 cell line on cell viability using CellTox Green (G8741, Promega) and the CellTiter-Glo 2.0 kit (G9241, Promega), respectively, to establish their cytotoxic effect. Using a Tecan Spark 10 M instrument, the measurements were performed as end point methods in the multiplex. For multiplex measurement, 7500 cells were seeded per well in 50 μL of culture media and cultured for 24 h before the addition of selected compounds. […] Next, the CellTiter-Glo Luminescent Cell Viability Assay with an integration time of 500 ms was determined.

HEK-293 cells [2] = assay: CellTox Green cytotoxicity assay; assay type: cell-based; details: HEK-293, up to 20 μM
Description: as §1, §2

[3] = parameters: method as in PMID 30296546; details: cited from earlier work

C[C@@]12CCC[C@H]1[C@@H]1CC=C3C[C@@H](OC(=O)CCCCC(=O)O)CC[C@]3(C)[C@H]1CC2 [Compound 23, Androst-5-en-3β-yl Hemiadipate]
pIC50 (17β-HSD10): ~4.82 and 4.82
cellular viability (CellTiter-Glo) (HEK-293 cells [1]): does not influence HEK-293 viability
cytotoxicity (CellTox Green) (HEK-293 cells [2]): not cytotoxic; also recorded: not toxic
human plasma stability, % remaining after 8 h [3]: 100%
